# Results: patent US11260100B2, “Compositions targeting the interaction domain between p27Kip1 and Brk and methods of use thereof to inhibit p27 Y phosphorylation and cdk4 activity” (The Research Foundation for the State University of New York, priority 2014, dated 2022)
# Experiments:
# HCC1954 (ER/PR-, Her2+) = experiment: Palbociclib sensitivity of breast cancer line; format: cell-based; details: Homo sapiens; HCC1954, non-responder
# MCF7 breast cancer cells = experiment: Proliferation with ALT and Palbociclib at IC50 concentration (FIG. 9); format: cell-based, human; details: drugs at IC50 concentration, replaced every two days
# Procedure: FIGS. 9A-9B: AltBrk Synergizes with Palbociclib. ALT, Palbociclib, or Brk alone or in combination were added to or expressed in MCF7 breast cancer cells on day 2 post plating. Drugs were added at their IC50 concentration, based on previous results. ALT is expressed from an ALT-MCF7 tetracycline inducible cell line generated in the Blain lab. When tetracycline is added to the cell culture media, ALT is expressed in these cells. Vector: no tetracycline was added, so no ALT induction was detected. (FIG. 9A) Cells were harvested and counted every two days, as a measure of proliferation. Proliferation is plotted as a percentage relative to that seen in the DMSO treated control. Drugs and media were replaced every two days. (FIG. 9B) Viability was measured by trypan blue staining, and plotted relative to viability seen in the DMSO treated control.
# (§1) Additional experiments were performed assessing activity of Brk in combination with Palbociclib. The data presented in FIGS. 9A and 9B reveal that Palbociclib and Brk inhibit proliferation for 2 days, and then resistance is observed (proliferation increases). Alt maintained arrest for roughly 10 days (50% inhibition of proliferation is detected). […] Alt-Brk/Palbociclib combination leads to a more durable cell cycle arrest. Mono therapy treated cells start to become resistant between day 8-10. […]
# cdk2 = molecular target: T1, cdk2 (Homo sapiens, UniProt P24941); experiment: Immunoblot of cdk2T160 as measure of activated cdk2 (FIG. 10); format: cell-based; details: MCF7, drugs at IC50
# T1 construct: added to or expressed in MCF7 breast cancer cells on day 2 post plating; endogenous in cells; host or cells: MCF7 (ALT-MCF7 tetracycline-inducible line)
# Procedure: FIG. 10: ALT BRK inhibits both CDK4 and CDK2. ALT, Palbociclib alone or in combination were added to or expressed in MCF7 breast cancer cells on day 2 post plating. Drugs were added at their IC50 concentration, based on previous results. ALT is expressed from an ALT-MCF7 tetracycline inducible cell line generated in the Blain lab. When tetracycline is added to the cell culture media, ALT is expressed in these cells. Vector: no tetracycline was added, so no ALT induction was detected. Drugs and media were replaced every two days. Cells were harvested every two days, lysed and used in immunoblot analysis. Actin: loading control. pRBser780 is a phospho-specific antibody that recognizes sites phosphorylated by cdk4, so is a measure of active cdk4. cdk2T160 recognizes a required phosphorylation event on residue […] and is a measure of activated cdk2.
# as §1
# MCF10A = experiment: PD0332991 inhibitor treatment, proliferation by cell counting; format: cell-based; details: Homo sapiens, MCF-10A, 48 h post treatment, read-out: IC50 (concentration needed to inhibit proliferation by 50%)
# Procedure: (§2) Immunoprecipitation with IgG served as a negative control (FIG. 6C). DNA with Hoechst stain is in blue and is merged with red and green staining (FIG. 6D). (FIG. 6E) Cdk4 was immunoprecipitated from the lysates and recombinant Rb was added to perform an in vitro kinase assay in the presence of ATP Immunoblot analysis was performed to probe for Rb, Ser780 pRb and cdk4 Immunoprecipitation with IgG served as a negative control. (FIG. 6F) Cells were treated with different concentrations of PD0332291 or DMSO as a control at Day 2. Total cell numbers were analyzed by counting 24 and 48 hours post treatment to determine IC50 values. (FIG. 6G) Cells were treated with different concentration of PD032291 or DMSO and analyzed by PI staining and FACS analysis. % G1 content is plotted.
# (§3) The PCR fragments were ligated to the T7pGEMEX human His-p27 or T7pGEMEX human Flag-p27 plasmid for expression in E. coli. Mutants Y74F, Y88F, and Y88/89F were previously described (12). Flag-tagged p27 mutants were purified by Flag-immunoprecipitation with Flag antibody (M-2, Sigma F-18C9) and eluted with Flag peptide (Sigma F-4799) according to manufacturer's protocol. His-tagged p27 mutants were purified by FPLC via his-trap affinity chromatography (His-Trap HP, GE Healthcare 71-5247-01). The affinity column was stripped according to manufacturer's protocol, then washed with 5 column volumes of 100 mM CoCl2. The crude material was applied with a loading buffer consisting of 6 M urea, 500 mM NaCl, 50 mM Tris-HCl, pH 7.5 and 20% glycerol. The material was washed with 500 mM NaCl, 50 mM Tris-HCl, pH 7.5 and 10% glycerol. The purified material was eluted with 500 mM imidazole,20 mM Hepes pH 7.4 and 1 M KCl. The protein was then dialyzed overnight in a solution of 25 mM Hepes pH 7.7, 150 mM NaCl, 5 mM MgCl2 and 0.05% NP40.
# [1] = system: MCF7 WT Brk expressing cells; experiment: as above; format: cell-based; details: Homo sapiens, 48 h post treatment, read-out: IC50 (concentration needed to inhibit proliferation by 50%)
# Procedure: as §2, §3
# Mock MCF7 cells = experiment: as above; format: cell-based; details: Homo sapiens, 48 h post treatment, read-out: IC50 (concentration needed to inhibit proliferation by 50%)
# Procedure: as §2, §3
# MDA MB-468 cells = experiment: as above; format: cell-based; details: Homo sapiens, 48 h post treatment, read-out: IC50 (concentration needed to inhibit proliferation by 50%)
# Procedure: as §2, §3
smiles,measurement,setting,value
CC(=O)c1c(C)c2cnc(Nc3ccc(N4CCNCC4)cn3)nc2n(C2CCCC2)c1=O [PD0332991],IC50,"HCC1954 (ER/PR-, Her2+)",> 1000 nM
same,duration of proliferation inhibition / arrest,MCF7 breast cancer cells,2 days
same,cdk2 activity (cdk2T160),cdk2,does not inhibit cdk2
same,IC50,MCF10A,110 nM
same,IC50,[1],> 600 nM
same,IC50,Mock MCF7 cells,150 nM
same,IC50,MDA MB-468 cells,350 nM
